Experimental findings from article PMC8939339, “Mechanism of Cooperative Degradation of Gum Arabic Arabinogalactan Protein by Bifidobacterium longum Surface Enzymes” (Applied and Environmental Microbiology, 2022) are described below.

The assay deals with T1, BlArafE (Bifidobacterium longum, UniProt A0ACD7UMY4).
T1 construct: gene BLLJ_1850; signal peptide (aa 1-26) and C-terminal TM region (aa 1637-1659) removed; printed insert 88 to 4899 (nucleotides); His-tag (printed both as C- and N-terminal; pET23b); E. coli BL21(DE3); 175 kDa
Kind of assay: HPAEC-PAD of reaction products. Type of assay: biochemical. As to conditions: 50 mM sodium acetate pH 6.0, 37 °C, 16 h; both alpha1,3- and alpha1,4-Araf cleaved.

T1 sequence (A0ACD7UMY4 30-1633): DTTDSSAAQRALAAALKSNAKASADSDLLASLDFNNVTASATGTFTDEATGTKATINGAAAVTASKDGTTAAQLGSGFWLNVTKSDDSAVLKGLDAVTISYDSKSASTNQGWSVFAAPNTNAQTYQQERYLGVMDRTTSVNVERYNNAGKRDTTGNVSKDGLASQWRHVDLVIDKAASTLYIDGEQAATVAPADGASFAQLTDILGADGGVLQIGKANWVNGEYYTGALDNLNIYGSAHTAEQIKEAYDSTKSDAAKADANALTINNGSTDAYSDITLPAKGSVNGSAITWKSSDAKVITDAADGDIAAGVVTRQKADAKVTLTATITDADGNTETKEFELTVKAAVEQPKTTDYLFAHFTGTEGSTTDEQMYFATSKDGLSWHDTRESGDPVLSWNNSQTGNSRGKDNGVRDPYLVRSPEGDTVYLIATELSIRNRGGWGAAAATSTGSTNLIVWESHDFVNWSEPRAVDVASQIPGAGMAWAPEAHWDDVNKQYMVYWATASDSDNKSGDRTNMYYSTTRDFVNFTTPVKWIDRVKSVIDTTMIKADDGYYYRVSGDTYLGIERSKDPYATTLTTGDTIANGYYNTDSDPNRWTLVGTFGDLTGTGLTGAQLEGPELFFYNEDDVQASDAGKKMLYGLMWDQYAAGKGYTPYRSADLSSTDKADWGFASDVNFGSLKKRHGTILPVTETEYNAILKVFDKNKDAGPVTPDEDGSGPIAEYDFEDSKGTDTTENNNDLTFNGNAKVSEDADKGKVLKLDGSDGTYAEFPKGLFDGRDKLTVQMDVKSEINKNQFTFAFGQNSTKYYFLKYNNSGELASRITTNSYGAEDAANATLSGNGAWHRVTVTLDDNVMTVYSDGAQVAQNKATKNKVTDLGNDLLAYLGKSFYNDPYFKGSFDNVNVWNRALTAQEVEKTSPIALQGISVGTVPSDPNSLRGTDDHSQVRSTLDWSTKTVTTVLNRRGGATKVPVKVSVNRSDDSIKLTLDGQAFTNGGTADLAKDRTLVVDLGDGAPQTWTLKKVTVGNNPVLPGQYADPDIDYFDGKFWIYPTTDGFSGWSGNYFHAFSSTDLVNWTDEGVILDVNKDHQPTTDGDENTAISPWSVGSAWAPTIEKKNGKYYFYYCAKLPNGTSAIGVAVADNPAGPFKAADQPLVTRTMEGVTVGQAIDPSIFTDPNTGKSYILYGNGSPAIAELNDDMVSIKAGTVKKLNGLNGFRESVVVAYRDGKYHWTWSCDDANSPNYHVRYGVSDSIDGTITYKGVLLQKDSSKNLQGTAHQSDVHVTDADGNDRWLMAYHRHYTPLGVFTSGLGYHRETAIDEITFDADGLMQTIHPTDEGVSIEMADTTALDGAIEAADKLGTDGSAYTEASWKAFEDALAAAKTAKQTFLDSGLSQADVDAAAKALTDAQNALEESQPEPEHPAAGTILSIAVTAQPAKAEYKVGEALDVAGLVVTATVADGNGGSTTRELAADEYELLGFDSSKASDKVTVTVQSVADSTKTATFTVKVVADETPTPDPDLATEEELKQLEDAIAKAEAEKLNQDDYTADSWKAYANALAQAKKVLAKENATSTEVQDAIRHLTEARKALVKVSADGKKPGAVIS

Take `C[C@@H]1O[C@@H](O[C@H]2[C@H](O)[C@@H](O)[C@H](OC[C@H]3O[C@@H](OC[C@H]4OC(O)[C@H](O)[C@@H](O)[C@H]4O)[C@H](O)[C@@H](OC4O[C@@H](CO)C(O)[C@H]4O)[C@H]3OC3O[C@@H](CO)C(O)[C@H]3O)O[C@@H]2C(=O)O)[C@H](O)[C@H](O)[C@H]1O` (stereo partly shown) [S5-A]: the “HPAEC-PAD of reaction products” value is “BlArafE cleaved S5-A into S4 and L-arabinose”.
